From patent publication US20160009693A1, “HERBICIDAL COMPOUNDS” (SYNGENTA LIMITED, priority 2013, published 2016)

Key:
Type in all cases: in vivo
Conditions in all cases: applied at 1000 g/h, evaluated after 13 days
Setaria faberi (SETFA) [1] = experiment: Herbicidal glasshouse test, pre-emergence, SETFA
Solanum nigrum (SOLNI) [2] = experiment: Herbicidal glasshouse test, pre-emergence, SOLNI
Outline: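 Seeds of Solanum nigrum were sown in pots of standard soil and kept one day in a glasshouse at 24/16° C. day/night, 14 hours light and 65% humidity. For the pre-emergence treatment they were then sprayed with an aqueous solution of the active ingredient formulated in acetone/water (50:50) containing 0.5% Tween 20. Plant damage was rated after 13 days.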

[3] = test system: Alopecurus myosuroides (ALOMY); experiment: Herbicidal glasshouse test, post-emergence, ALOMY
Setaria faberi (SETFA) [4] = experiment: Herbicidal glasshouse test, post-emergence, SETFA
Outline: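 Setaria faberi seeds were sown in standard soil in pots and grown for 8 days in a glasshouse at 24/16° C. day/night, 14 hours light and 65% humidity. The seedlings were then sprayed post-emergence with the active ingredient in acetone/water (50:50) containing 0.5% Tween 20. Afterwards they were kept under the same conditions, watered twice daily, and scored for percentage damage on a five point scale.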

[5] = test system: Ipomoea hederacea (IPOHE); experiment: Herbicidal glasshouse test, pre-emergence, IPOHE
[6] = test system: Alopecurus myosuroides (ALOMY); experiment: Herbicidal glasshouse test, pre-emergence, ALOMY
[7] = test system: Amaranthus retoflexus (AMARE); experiment: Herbicidal glasshouse test, pre-emergence, AMARE
Outline: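 Amaranthus retoflexus seeds were sown in pots of standard soil and kept one day in a glasshouse at 24/16° C. (day/night), 14 hours light and 65% humidity. They were then sprayed pre-emergence with the active ingredient in acetone/water (50:50) containing 0.5% Tween 20. Plants grew under the same conditions, watered twice daily, and percentage damage was scored after 13 days.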

[8] = test system: Amaranthus retoflexus (AMARE); experiment: Herbicidal glasshouse test, post-emergence, AMARE
Outline: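 Amaranthus retoflexus (AMARE) seeds were sown in pots of standard soil and grown in a glasshouse at 24/16° C. day/night, 14 hours light and 65% humidity for 8 days. The plants were then sprayed post-emergence with an aqueous solution of the active ingredient in acetone/water (50:50) with 0.5% Tween 20. Damage was scored after 13 days.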

[9] = test system: Ipomoea hederacea (IPOHE); experiment: Herbicidal glasshouse test, post-emergence, IPOHE
[10] = test system: Echinochloa crus-galli (ECHCG); experiment: Herbicidal glasshouse test, post-emergence, ECHCG
Outline: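 Echinochloa crus-galli (ECHCG) seeds were sown in standard soil in pots and grown for 8 days in a glasshouse at 24/16° C. day/night, 14 hours light and 65% humidity. The young plants were then sprayed post-emergence with the active ingredient in acetone / water (50:50) containing 0.5% Tween 20. Damage was scored after 13 days.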

[11] = test system: Echinochloa crus-galli (ECHCG); experiment: Herbicidal glasshouse test, pre-emergence, ECHCG
Outline: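 Echinochloa crus-galli seeds were sown in standard soil in pots and grown for one day in a glasshouse at 24/16° C. day/night, 14 hours light and 65% humidity. Pre-emergence spraying used an aqueous solution of the active ingredient in acetone/water (50:50) with 0.5% Tween 20. Damage was scored after 13 days on a five point scale.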

Solanum nigrum (SOLNI) [12] = experiment: Herbicidal glasshouse test, post-emergence, SOLNI

Structure (SMILES)	PRE Application SETFA, percentage damage (five point scale) (Setaria faberi (SETFA) [1])	PRE Application SOLNI, percentage damage (five point scale) (Solanum nigrum (SOLNI) [2])	POST Application ALOMY, percentage damage (five point scale) [3]	POST Application SETFA, percentage damage (five point scale) (Setaria faberi (SETFA) [4])	PRE Application IPOHE, percentage damage (five point scale) [5]	PRE Application ALOMY, percentage damage (five point scale) [6]	PRE Application AMARE, percentage damage (five point scale) [7]	POST Application AMARE, percentage damage (five point scale) [8]	POST Application IPOHE, percentage damage (five point scale) [9]	POST Application ECHCG, percentage damage (five point scale) [10]	PRE Application ECHCG, percentage damage (five point scale) [11]	POST Application SOLNI, percentage damage (five point scale) (Solanum nigrum (SOLNI) [12])
Cn1nnnc1NC(=O)c1nn(C)c(=O)n(Cc2cccc(F)c2)c1=O [Compound 1.063]	4 (4=60-79%)	5 (5=80-100%)	5 (5=80-100%)	4 (4=60-79%)	5 (5=80-100%)	5 (5=80-100%)	5 (5=80-100%)	5 (5=80-100%)	5 (5=80-100%)	5 (5=80-100%)	5 (5=80-100%)	5 (5=80-100%)
Cn1nnnc1NC(=O)c1nn(C)c(=O)n(Cc2ccc(F)c(F)c2)c1=O [Compound 1.064]	1 (1=0-19%)	5 (5=80-100%)	2 (2=20-39%)	2 (2=20-39%)	5 (5=80-100%)	5 (5=80-100%)	5 (5=80-100%)	5 (5=80-100%)	5 (5=80-100%)	5 (5=80-100%)	5 (5=80-100%)	5 (5=80-100%)
Cn1nnnc1NC(=O)c1nn(C)c(=O)n(Cc2c(F)cccc2F)c1=O [Compound 1.065]	5 (5=80-100%)	5 (5=80-100%)	5 (5=80-100%)	5 (5=80-100%)	5 (5=80-100%)	5 (5=80-100%)	5 (5=80-100%)	5 (5=80-100%)	5 (5=80-100%)	5 (5=80-100%)	5 (5=80-100%)	5 (5=80-100%)
Cn1nnnc1NC(=O)c1nn(C)c(=O)n(Cc2ccc(OC(F)F)cc2)c1=O [Compound 1.066]	1 (1=0-19%)	5 (5=80-100%)	5 (5=80-100%)	1 (1=0-19%)	5 (5=80-100%)	5 (5=80-100%)	5 (5=80-100%)	5 (5=80-100%)	5 (5=80-100%)	5 (5=80-100%)	5 (5=80-100%)	5 (5=80-100%)
Cn1nnnc1NC(=O)c1nn(C)c(=O)n(Cc2cccc(F)c2F)c1=O [Compound 1.067]	4 (4=60-79%)	5 (5=80-100%)	5 (5=80-100%)	4 (4=60-79%)	5 (5=80-100%)	5 (5=80-100%)	5 (5=80-100%)	5 (5=80-100%)	5 (5=80-100%)	5 (5=80-100%)	5 (5=80-100%)	5 (5=80-100%)
Cn1nnnc1NC(=O)c1nn(C)c(=O)n(Cc2ccc(Cl)c(Cl)c2)c1=O [Compound 1.068]	1 (1=0-19%)	5 (5=80-100%)	3 (3=40-59%)	1 (1=0-19%)	1 (1=0-19%)	3 (3=40-59%)	5 (5=80-100%)	5 (5=80-100%)	5 (5=80-100%)	4 (4=60-79%)	2 (2=20-39%)	5 (5=80-100%)
Cn1nnnc1NC(=O)c1nn(C)c(=O)n(Cc2ccc(F)cc2Cl)c1=O [Compound 1.069]	2 (2=20-39%)	5 (5=80-100%)	5 (5=80-100%)	2 (2=20-39%)	5 (5=80-100%)	5 (5=80-100%)	5 (5=80-100%)	5 (5=80-100%)	5 (5=80-100%)	5 (5=80-100%)	5 (5=80-100%)	5 (5=80-100%)
COc1cc(Cn2c(=O)c(C(=O)Nc3nnnn3C)nn(C)c2=O)cc(Cl)n1 [Compound 1.070]	1 (1=0-19%)	5 (5=80-100%)	5 (5=80-100%)	2 (2=20-39%)	5 (5=80-100%)	5 (5=80-100%)	5 (5=80-100%)	5 (5=80-100%)	5 (5=80-100%)	5 (5=80-100%)	5 (5=80-100%)	5 (5=80-100%)
Cn1nnnc1NC(=O)c1nn(C)c(=O)n(Cc2ccc([N+](=O)[O-])cc2)c1=O [Compound 1.071]	2 (2=20-39%)	5 (5=80-100%)	4 (4=60-79%)	1 (1=0-19%)	5 (5=80-100%)	5 (5=80-100%)	5 (5=80-100%)	5 (5=80-100%)	2 (2=20-39%)	4 (4=60-79%)	5 (5=80-100%)	5 (5=80-100%)
Cn1nnnc1NC(=O)c1nn(C)c(=O)n(Cc2c(Cl)cccc2Cl)c1=O [Compound 1.072]	2 (2=20-39%)	5 (5=80-100%)	4 (4=60-79%)	4 (4=60-79%)	3 (3=40-59%)	5 (5=80-100%)	5 (5=80-100%)	5 (5=80-100%)	4 (4=60-79%)	4 (4=60-79%)	5 (5=80-100%)	5 (5=80-100%)
